Values of other authors, collected in US6420552B1, “Syntheses of 4-alkyl chromogenic glycosides and 7-alkyl chromogenic glycosides of N-acetylneuraminic acids” (priority 1999, dated 2002).

What was measured:
[1] = system: neuraminidase activity of influenza types A and B; conditions: substrate activity, result in words
[2] = system: neuraminidase activity of parainfluenza types 1 and 2; conditions: substrate activity, result in words
[3] = system: respiratory syncytial adenovirus; conditions: substrate activity, result in words
[4] = target: neuraminidase from Vibrio cholerae (Vibrio cholerae serotype O1, UniProt P0C6E9); conditions: 4-methylumbelliferyl α ketosides
Sequence of neuraminidase from Vibrio cholerae (P0C6E9 25-781): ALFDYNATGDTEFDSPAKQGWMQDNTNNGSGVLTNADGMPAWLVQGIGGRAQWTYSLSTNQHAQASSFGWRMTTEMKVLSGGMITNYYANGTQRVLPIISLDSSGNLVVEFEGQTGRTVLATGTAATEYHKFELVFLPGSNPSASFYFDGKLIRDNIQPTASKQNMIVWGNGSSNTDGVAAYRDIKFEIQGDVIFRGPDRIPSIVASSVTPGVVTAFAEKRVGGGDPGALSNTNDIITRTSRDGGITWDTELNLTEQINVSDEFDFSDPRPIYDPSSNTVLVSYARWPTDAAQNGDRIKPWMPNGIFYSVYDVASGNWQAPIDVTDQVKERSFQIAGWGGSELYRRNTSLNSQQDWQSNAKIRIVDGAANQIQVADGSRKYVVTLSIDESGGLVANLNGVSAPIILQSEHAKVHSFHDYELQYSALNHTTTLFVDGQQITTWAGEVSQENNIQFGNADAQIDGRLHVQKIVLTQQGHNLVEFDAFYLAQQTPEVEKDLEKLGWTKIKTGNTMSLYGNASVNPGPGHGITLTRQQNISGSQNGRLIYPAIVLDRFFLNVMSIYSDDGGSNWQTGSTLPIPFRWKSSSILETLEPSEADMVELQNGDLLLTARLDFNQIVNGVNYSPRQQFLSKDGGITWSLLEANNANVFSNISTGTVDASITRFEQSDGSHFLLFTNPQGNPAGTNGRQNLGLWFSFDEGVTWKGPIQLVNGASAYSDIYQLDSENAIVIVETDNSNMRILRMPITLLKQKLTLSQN

Compound | hydrolysis / colour development by neuraminidase activity of influenza types A and B [1] | hydrolysis / colour development by neuraminidase activity of parainfluenza types 1 and 2 [2] | hydrolysis by respiratory syncytial adenovirus [3] | glycosidic hydrolysis by neuraminidase from Vibrio cholerae [4]
5-bromo-3-indolyl 4-O-methyl Neu5Ac ketoside | acted upon | acted upon | not at all | 
CC(=O)N[C@@H]1CCC(O)(C(=O)O)O[C@H]1C[C@H](O)CO (stereo partly shown) [4,7-dideoxy Neu5Ac] |  |  |  | significantly slowed
COC1CC(Oc2c[nH]c3ccc(Br)cc23)(C(=O)O)OC(C(OC)C(O)CO)C1NC(C)=O (stereo not shown) [5-bromo-3-indolyl 4,7-di-O-methyl Neu5Ac ketoside] | selectively hydrolyzed |  |  | 
CC(=O)N[C@H]1[C@H]([C@@H](O)[C@@H](O)CO)OC(O)(C(=O)O)C[C@@H]1O (stereo partly drawn) [7,8-(bis)epi Neu5Ac] |  |  |  | significantly slowed
CC(=O)N[C@H]1[C@H](C[C@H](O)CO)OC(O)(C(=O)O)C[C@@H]1O (stereo partly shown) [7-deoxy Neu5Ac] |  |  |  | significantly slowed
